Like-named read-outs stand apart in the source and are kept apart here.
Key:
H1299 cells = experiment: Cell proliferation PAD assay, H1299; assay type: cell-based; conditions: Homo sapiens, 48 hours
Summary of the method: (§1)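 2,000 cells/well; compound added at 24 h (duplicate, 6.3-fold series, 10 mM stock, 500× dilution into wells); 48 h, 37 °C/5% CO2. Formamide fix, DAPI stain, image-based counts of live (proliferation), apoptotic, dead cells.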

TRAF6/Uev1A/Ubc13 = target: T1, TRAF6/Uev1A/Ubc13 (Homo sapiens, UniProt Q9Y4K3); experiment: TRAF6/Uev1A/Ubc13 plate-based ubiquitin ligase assay; assay type: biochemical
T1 sequence (Q9Y4K3 1-522): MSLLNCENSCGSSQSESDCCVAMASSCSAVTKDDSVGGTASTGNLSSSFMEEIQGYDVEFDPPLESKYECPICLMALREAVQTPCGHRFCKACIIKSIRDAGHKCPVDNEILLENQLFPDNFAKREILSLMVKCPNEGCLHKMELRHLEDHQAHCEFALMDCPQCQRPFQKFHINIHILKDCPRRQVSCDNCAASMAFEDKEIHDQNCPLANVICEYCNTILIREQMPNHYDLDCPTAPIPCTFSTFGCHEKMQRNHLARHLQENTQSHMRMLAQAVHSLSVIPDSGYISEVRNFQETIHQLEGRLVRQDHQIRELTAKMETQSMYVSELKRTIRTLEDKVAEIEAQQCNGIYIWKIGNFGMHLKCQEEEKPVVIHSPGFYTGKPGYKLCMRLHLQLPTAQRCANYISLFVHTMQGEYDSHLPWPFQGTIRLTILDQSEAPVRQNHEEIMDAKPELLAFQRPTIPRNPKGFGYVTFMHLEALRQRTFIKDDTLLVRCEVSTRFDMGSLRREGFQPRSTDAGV
Summary of the method: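 Ligase activity was read as luminescence from anti-Flag/HRP detection of Flag-ubiquitin bound to casein-blocked Ni-plates alongside His-ubiquitin after a 1 h room-temperature reaction. Buffer: 62.5 mM Tris pH 7.5, 6.25 mM MgCl2, 1.0 mM DTT, 2 μM ATP; E1, Uev1a/Ubc13 and TRAF6 added last to start. IC50s derived across compound concentrations.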

A549 cells = experiment: Cell proliferation PAD assay, A549; assay type: cell-based; conditions: Homo sapiens, 48 hours
Summary of the method: as §1

[1] = NCI-H1299, 3pt, read-out: H1299 3pt
[2] = NCI-H1299, 6pt, read-out: H1299 6pt

Row | Compound | IC50 (H1299 cells; [1]) [µM] | IC50 (TRAF6/Uev1A/Ubc13) [µM] | IC50 (A549 cells; 3pt, read-out: A549 3pt) [µM] | IC50 (H1299 cells; [2]) [µM] | IC50 (A549 cells; 6pt, read-out: A549 6pt) [µM]
1 | O=S(=O)(Nc1ccc(Oc2cc(C(F)(F)F)ccn2)cc1)c1cccc2nonc12 [compound 103, N-(4-{[4-(trifluoromethyl)pyridin-2-yl]oxy}phenyl)-2,1,3-benzoxadiazole-4-sulfonamide] | ≥ 20 | ≥ 20 | ≥ 20 | – | –
2 | O=S(=O)(Nc1ccc(Oc2ccc(Cl)cc2)cc1)c1cccc2nonc12 [compound 104, N-[4-(4-chlorophenoxy)phenyl]-2,1,3-benzoxadiazole-4-sulfonamide] | ≥ 20 | ≥ 20 | ≥ 20 | – | –
3 | O=[N+]([O-])c1ccc(N2CCN(c3ccc(Cl)c(C(F)(F)F)c3)CC2)c2nonc12 [compound 105, {4-[4-chloro-3-(trifluoromethyl)phenyl]piperazin-1-yl}-7-nitro-2,1,3-benzoxadiazole] | ≥ 20 | ≥ 20 | ≥ 20 | – | –
4 | O=[N+]([O-])c1ccc(N2CCN(c3cccc(C(F)(F)F)c3)CC2)c2nonc12 [compound 106, 4-nitro-7-{4-[3-(trifluoromethyl)phenyl]piperazin-1-yl}-2,1,3-benzoxadiazole] | ≥ 20 | ≥ 20 | ≥ 20 | – | –
5 | O=[N+]([O-])c1ccc(N2CCN(c3ccncc3)CC2)c2nonc12 [compound 108, 4-nitro-7-(4-pyridin-4-ylpiperazin-1-yl)-2,1,3-benzoxadiazole] | ≥ 20 | ≥ 20 | 1 to 20 | – | –
6 | CN1CCN(c2ccc([N+](=O)[O-])c3nonc23)CC1 [compound 110, 4-(4-methylpiperazin-1-yl)-7-nitro-2,1,3-benzoxadiazole] | ≥ 20 | ≥ 20 | ≥ 20 | – | –
7 | O=[N+]([O-])c1ccc(N2CCNCC2)c2nonc12 [compound 112, 4-nitro-7-piperazin-1-yl-2,1,3-benzoxadiazole] | ≥ 20 | ≥ 20 | ≥ 20 | – | –
8 | O=S(=O)(Nc1cccc2nsnc12)c1ccc(Oc2cccnc2)cc1 [compound 116, N-2,1,3-benzothiadiazol-4-yl-4-(pyridin-3-yloxy)benzenesulfonamide] | ≥ 20 | ≥ 20 | 1 to 20 | – | –
9 | N#Cc1cccnc1N1CCN(c2ccc([N+](=O)[O-])c3nonc23)CC1 [compound 118, 2-[4-(7-nitro-2,1,3-benzoxadiazol-4-yl)piperazin-1-yl]nicotinonitrile] | ≥ 20 | 1 to 20 | ≥ 20 | – | –
10 | O=S(=O)(Oc1ccc(N2CCN(S(=O)(=O)c3cccc4nonc34)CC2)cc1)c1cccc2nonc12 [compound 139, 4-[4-(2,1,3-benzoxadiazol-4-ylsulfonyl)piperazin-1-yl]phenyl 2,1,3-benzoxadiazole-4-sulfonate] | ≥ 20 | 1 to 20 | ≥ 20 | – | –
11 | O=[N+]([O-])c1ccc(N2CCN(c3ccccc3)CC2)c2nonc12 [compound 143, 4-nitro-7-(4-phenylpiperazin-1-yl)-2,1,3-benzoxadiazole] | ≥ 20 | ≥ 20 | ≥ 20 | – | –
12 | O=[N+]([O-])c1ccc(N2CCN(c3c(Cl)cncc3Cl)CC2)c2nonc12 [compound 151, 4-[4-(3,5-dichloropyridin-4-yl)piperazin-1-yl]-7-nitro-2,1,3-benzoxadiazole] | ≥ 20 | 1 to 20 | ≥ 20 | – | –
13 | Cc1cc(N2CCN(c3ccc([N+](=O)[O-])c4nonc34)CC2)c2ccccc2n1 [compound 152, 2-methyl-4-[4-(7-nitro-2,1,3-benzoxadiazol-4-yl)piperazin-1-yl]quinoline] | 1 to 20 | ≥ 20 | 1 to 20 | – | –
14 | Cc1ccnc(N2CCN(c3ccc([N+](=O)[O-])c4nonc34)CC2)c1 [compound 154, 4-[4-(4-methylpyridin-2-yl)piperazin-1-yl]-7-nitro-2,1,3-benzoxadiazole] | ≥ 20 | ≥ 20 | ≥ 20 | – | –
15 | O=[N+]([O-])c1ccc(N2CCN(c3ccc4ccccc4n3)CC2)c2nonc12 [compound 155, 2-[4-(7-nitro-2,1,3-benzoxadiazol-4-yl)piperadin-1-yl]quinoline] | ≥ 20 | 1 to 20 | ≥ 20 | – | –
16 | Cc1cccnc1N1CCN(c2ccc([N+](=O)[O-])c3nonc23)CC1 [compound 156, 4-[4-(3-methylpyridin-2-yl)piperazin-1-yl]-7-nitro-2,1,3-benzoxadiazole] | ≥ 20 | ≥ 20 | ≥ 20 | – | –
17 | O=c1[nH]c2ccccc2n1C1CCN(c2ccc([N+](=O)[O-])c3nonc23)CC1 [compound 160, 1-[1-(7-nitro-2,1,3-benzoxadiazol-4-yl)piperidin-4-yl]-1,3-dihydro-2H-benzimidazol-2-one] | ≥ 20 | ≥ 20 | ≥ 20 | – | –
18 | CC1CN(c2ccc([N+](=O)[O-])c3nonc23)CC(C)O1 (stereo not shown) [compound 161, 4-(2,6-dimethylmorpholin-4-yl)-7-nitro-2,1,3-benzoxadiazole] | ≥ 20 | ≥ 20 | ≥ 20 | – | –
19 | Cc1cccc(N2CCN(c3ccc([N+](=O)[O-])c4nonc34)CC2)n1 [compound 162, 4-[4-(6-methylpyridin-2-yl)piperazin-1-yl]-7-nitro-2,1,3-benzoxadiazole] | ≥ 20 | ≥ 20 | ≥ 20 | – | –
20 | COc1ccc(S(=O)(=O)N2CCN(c3ncc(C(F)(F)F)cc3Cl)CC2)c2nonc12 [compound 163, 4-({4-[3-chloro-5-(trifluoromethyl)pyridin-2-yl]piperazin-1-yl}sulfonyl)-7-methoxy-2,1,3-benzoxadiazole] | ≥ 20 | 1 to 20 | ≥ 20 | – | –
21 | O=S(=O)(c1ccc(F)c2nonc12)N1CCN(c2ncccc2C(F)(F)F)CC1 [compound 165, 4-fluoro-7-({4-[3-(trifluoromethyl)pyridin-2-yl]piperazin-1-yl}sulfonyl)-2,1,3-benzoxadiazole] | ≥ 20 | ≥ 20 | 1 to 20 | ≥ 20 | ≥ 20
22 | O=S(=O)(c1ccc(N2CCN(c3ncccc3C(F)(F)F)CC2)c2nonc12)N1CCN(c2ncccc2C(F)(F)F)CC1 [compound 166, 4-{4-[3-(trifluoromethyl)pyridin-2-yl]piperazin-1-yl}-7-({4-[3-(trifluoromethyl)pyridin-2-yl]piperazin-1-yl}sulfonyl)-2,1,3-benzoxadiazole] | – | 1 to 20 | – | ≥ 20 | 1 to 20
23 | O=S(=O)(c1ccc(Cl)c2nonc12)N1CCC(O)(c2ccc(Cl)cc2)CC1 [compound 168, 1-[(7-chloro-2,1,3-benzoxadiazol-4-yl)sulfonyl]-4-(4-chlorophenyl)piperidin-4-ol] | 1 to 20 | ≥ 20 | 1 to 20 | ≥ 20 | ≥ 20
24 | O=S(=O)(c1ccc(Cl)c2nonc12)N1CCN(c2ccc(O)cc2)CC1 [compound 172, 4-{4-[(7-chloro-2,1,3-benzoxadiazol-4-yl)sulfonyl]piperazin-1-yl}phenol] | 1 to 20 | ≥ 20 | 1 to 20 | ≥ 20 | ≥ 20
25 | O=S(=O)(c1ccc(N2CCN(c3ccc(O)cc3)CC2)c2nonc12)N1CCN(c2ccc(O)cc2)CC1 [compound 173, 4-[4-({7-[4-(4-hydroxyphenyl)piperazin-1-yl]-2,1,3-benzoxadiazol-4-yl}sulfonyl)piperazin-1-yl]phenol] | – | ≥ 20 | – | 1 to 20 | 1 to 20
26 | COC(=O)c1ccc(NS(=O)(=O)c2ccc(Sc3cccc4cccnc34)c3nonc23)cc1 [compound 174, methyl 4-({[7-(quinolin-8-ylthio)-2,1,3-benzoxadiazol-4-yl]sulfonyl}amino)benzoate] | 1 to 20 | ≥ 20 | 1 to 20 | 1 to 20 | 1 to 20
27 | N#Cc1cccnc1N1CCN(S(=O)(=O)c2ccc(Sc3cccc4cccnc34)c3nonc23)CC1 [compound 176, 2-(4-{[7-(quinolin-8-ylthio)-2,1,3-benzoxadiazol-4-yl]sulfonyl}piperazin-1-yl)nicotinonitrile] | ≥ 20 | 1 to 20 | ≥ 20 | ≥ 20 | ≥ 20
28 | O=S(=O)(c1ccc(N2CCN(c3ccccc3)CC2)c2nonc12)N1CCN(c2ccccc2)CC1 [compound 187, 4-(4-phenylpiperazin-1-yl)-7-[(4-phenylpiperazin-1-yl)sulfonyl]-2,1,3-benzoxadiazole] | ≥ 20 | 1 to 20 | ≥ 20 | – | –
